These results are taken from the supplement of paper PMC10290057.

Molecules are shown by their SMILES. Counter-ions that a name gives are not always drawn.

Assay [1] has as its system HCT116. Description: AC50 cell viability (CellTiter-Glo); higher = less potent. Particulars: 48 h. For orientation: ATP-based viability assays read luminescence as a measure of living cells.
Assay [2] concerns HCT116. Description: efficacy (fitted maximal change in viability relative to DMSO control); higher = less cytotoxic (negative = loss of viability). Particulars: 48 h.
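Throughout, for AC50 cell viability (CellTiter-Glo): HCT116 colorectal carcinoma cells screened at five concentrations per compound, luminescent viability scaled between DMSO wells and empty wells on each plate, curves fitted per compound.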
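Throughout, for efficacy (fitted maximal change in viability relative to DMSO control): Luminescence-based viability readout, five doses per compound, normalized against on-plate DMSO and empty-well controls, followed by dose-response curve fitting for every drug.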

Take `CCC[C@H](N[C@H]1CCc2cc(F)cc(F)c2C1)C(=O)Nc1cn(C(C)(C)CNCC(C)(C)C)cn1` [Nirogacestat]: in assay [1], the AC50 cell viability amounted to 20.9 µM. The efficacy in assay [2] is -90.3%.

In assay [1], `CC(=O)Oc1ccccc1C(=O)Nc1ncc([N+](=O)[O-])s1` [Nitazoxanide] had an AC50 cell viability of 23.5 µM. Moreover, the efficacy in assay [2] was -80.3%.

`O=[N+]([O-])c1ccc(O)c2ncccc12` [Nitroxoline]: in assay [1], the AC50 cell viability turned out to be 10.5 µM. In assay [2], the efficacy was -96.2%.

For `COC(=O)Nc1nc2cc(C(=O)c3cccs3)ccc2[nH]1` [Nocodazole], the AC50 cell viability in assay [1] came to 0.166 µM. Also, the efficacy in assay [2] is -65.7%.

As to `COc1ccc2c(c1OC)C(=O)O[C@H]2[C@H]1c2c(cc3c(c2OC)OCO3)CCN1C` [Noscapine], the AC50 cell viability in assay [1] came out at 14.8 µM. In assay [2], the efficacy is -55.1%.

Take `COC1=CC=C(C(=C1)OC(C)C)C/2=N/[C@@H]([C@@H](N2C(=O)N3CCNC(=O)C3)C4=CC=C(Cl)C=C4)C5=CC=C(Cl)C=C5` [Nutlin-3]: the AC50 cell viability in assay [1] turned out to be 23.5 µM. For the same compound, the efficacy in assay [2] was -98.3%.

Regarding `NC1CCC(N[C@@H]2C[C@H]2c2ccccc2)CC1` (some centres not stated) [ORY-1001], the AC50 cell viability in assay [1] was found to be 16.6 µM. Moreover, the efficacy in assay [2] is -36%.

The compound `COc1cccc2cc(-c3nc([C@H]4CC[C@H](C(=O)O)CC4)n4ncnc(N)c34)[nH]c12` [OSI-027] gave an AC50 cell viability in assay [1] of 11.8 µM. Moreover, the efficacy in assay [2] is -94.5%.

In the case of `C#Cc1cccc(Nc2ncnc3cc(OCCOC)c(OCCO)cc23)c1` [OSI-420], the AC50 cell viability in assay [1] stood at 6.61 µM. For the same compound, the efficacy in assay [2] is -76.6%.

Regarding `NC(=O)c1c(OCc2c(F)cc(Br)cc2F)nsc1NC(=O)NCCCCN1CCCC1` [OSI-632], the AC50 cell viability in assay [1] worked out at 23.5 µM. Also, in assay [2], the efficacy was -100%.

As to `O=C(Nc1ccc(OC(F)(F)F)cc1)c1sccc1NCc1ccnc2ccccc12` [OSI-930], the AC50 cell viability in assay [1] is 10.5 µM. Moreover, the efficacy in assay [2] is -77.4%.

`CNC(=O)CCc1cc(-c2ccc(-c3ccc(C(F)(F)F)cc3)cc2)n(-c2ccc(N3CCNCC3)cc2)n1` [OSU-T315] registered an AC50 cell viability in assay [1] of 6.61 µM. Moreover, the efficacy in assay [2] was -90.4%.

Consider `Cc1cc(O)c(-c2ccc([C@@H](C)CN(C)C)cc2)c2c1[nH]c(=O)c1sccc12` [OTS964], for which the AC50 cell viability in assay [1] amounted to 0.0295 µM. In assay [2], the efficacy is -63.1%.

`CC(=O)c1cnc2ccc(-c3cc(Cl)c(O)c(Cl)c3)nc2c1N[C@H]1CC[C@H](CN(C)C)CC1` [OTS-167] had an AC50 cell viability in assay [1] of 0.0539 µM. Further, the efficacy in assay [2] is -70.5%.

Turning to `Nc1nccn2c1c(-c1cc3cccc(Cl)c3[nH]1)nc2[C@H]1CC[C@H](C(=O)O)CC1` [OXA-01], the AC50 cell viability in assay [1] is 9.34 µM. The efficacy in assay [2] is -65.8%.

Compound `COC1=CC(c2cc3ccccc3[nH]2)=N/C1=C/c1[nH]c(C)cc1C` [Obatoclax] had an AC50 cell viability in assay [1] of 1.66 µM. In assay [2], the efficacy is -90%.

Compound `CC[C@H]1/C=C\C=C/C[C@@H](C)[C@H](O)[C@@](C)(O)C(=O)[C@@H](C)[C@H](O)[C@@H](C)C(=O)[C@@H](C)[C@H](O)[C@@H](C)/C=C/C(=O)O[C@@H]2[C@H](C)[C@H](CC1)O[C@]1(CC[C@H](C)[C@H](C[C@@H](C)O)O1)[C@H]2C` [Oligomycin A] yielded an AC50 cell viability in assay [1] of 16.6 µM. Further, the efficacy in assay [2] is -112%.

Turning to `C=CC(=O)Nc1cccc(Oc2nc(Nc3ccc(N4CCN(C)CC4)cc3)nc3ccsc23)c1` [Olmutinib], in assay [1], the AC50 cell viability is 8.33 µM. The efficacy in assay [2] was -98.2%.

Consider `COC(=O)C[C@](O)(CCCC(C)(C)O)C(=O)O[C@@H]1C(OC)=CC23CCCN2CCc2cc4c(cc2[C@H]13)OCO4` (some centres not stated) [Omacetaxine mepesuccinate], for which the AC50 cell viability in assay [1] is 0.0235 µM. Also, the efficacy in assay [2] is -68.3%.

Consider `CC1(C)CC[C@@]2(CC[C@]3(C)[C@@H]([C@@H]2C1)C(=O)\C=C\4[C@@]3(C)CC[C@H]5C(C)(C)C(=O)\C(=C/[C@]45C)C#N)NC(=O)C(C)(F)F` [Omaveloxolone], for which, in assay [1], the AC50 cell viability was 5.9 µM. Further, in assay [2], the efficacy is -91.5%.

On to `COc1ccc(/C=C\c2cc(OC)c(OC)c(OC)c2)cc1NC(=O)[C@H](N)CO` [Ombrabulin], for which, in assay [1], the AC50 cell viability was 0.148 µM. Moreover, the efficacy in assay [2] is -62.9%.

In assay [1], `CC(C)c1cc(C(=O)N2Cc3ccc(CN4CCN(C)CC4)cc3C2)c(O)cc1O` [Onalespib] gave an AC50 cell viability of 0.118 µM. Also, the efficacy in assay [2] was -54.3%.

For `COC[C@H](NC(=O)c1cnc(C)s1)C(=O)N[C@@H](COC)C(=O)N[C@@H](Cc1ccccc1)C(=O)[C@@]1(C)CO1` [Oprozomib], the AC50 cell viability in assay [1] was determined as 0.0742 µM. Also, the efficacy in assay [2] was -88.1%.

As to `Cc1[nH]c(/C=C2\C(=O)Nc3ccccc32)c(C)c1CCC(=O)O` [Orantinib], in assay [1], the AC50 cell viability worked out at 23.5 µM. The efficacy in assay [2] was -49.3%.

Compound `C=C1C(=O)[C@@]23C(CC[C@@H]1[C@H]2O)[C@@]12CO[C@]3(O)[C@@H](O)[C@@H]1C(C)(C)CC[C@@H]2O` (some centres not stated) [Oridonin] came in with an AC50 cell viability in assay [1] of 13.2 µM. In assay [2], the efficacy is -98.8%.

The compound `C=CC(=O)Nc1cc(Nc2nccc(-c3cn(C)c4ccccc34)n2)c(OC)cc1N(C)CCN(C)C` [Osimertinib mesylate] yielded an AC50 cell viability in assay [1] of 8.33 µM. Besides, the efficacy in assay [2] was -103%.

With `C[C@](O)(COc1ccc(C#N)cc1)C(=O)Nc1ccc(C#N)c(C(F)(F)F)c1` [Ostarine], the AC50 cell viability in assay [1] stood at 20.9 µM. Also, the efficacy in assay [2] was -91.5%.

Consider `CCNC1(C(N)=O)CCN(c2ncnc3c2nc(-c2ccccc2Cl)n3-c2ccc(Cl)cc2)CC1` [Otenabant], for which the AC50 cell viability in assay [1] was 23.5 µM. Further, in assay [2], the efficacy was -97.3%.

With `O=C1[O][Pt]2([NH]C3CCCCC3[NH]2)[O]C1=O` (configuration not stated) [Oxaliplatin], the AC50 cell viability in assay [1] came out at 9.11 µM. The efficacy in assay [2] was -42.2%.

In turn, `O=C(/C=C/C#Cc1cccc(N[S+](=O)([O-])c2ccccc2)c1)NO` [Oxamflatin] returned an AC50 cell viability in assay [1] of 1.02 µM. The efficacy in assay [2] was -99.5%.

In assay [1], `COC(=O)Nc1nc2cc([S+]([O-])c3ccccc3)ccc2[nH]1` (configuration not stated) [Oxfendazole] gave an AC50 cell viability of 6.61 µM. In assay [2], the efficacy was -47.9%.

On to `CCCOc1ccc2[nH]c(NC(=O)OC)nc2c1` [Oxibendazole], for which, in assay [1], the AC50 cell viability is 0.295 µM. The efficacy in assay [2] was -64.9%.

In assay [1], `O=C(c1ccc(Nc2nc(C3CC3)cn3c(-c4cn[nH]c4)cnc23)c(F)c1)N1CCOCC1` [P21d hydrochloride] gave an AC50 cell viability of 14.8 µM. For the same compound, the efficacy in assay [2] is -86.2%.

In turn, `C=CCc1cccc(/C=N/NC(=O)CN2CCN(Cc3ccccc3)CC2)c1O` [PAC-1] returned an AC50 cell viability in assay [1] of 7.42 µM. Also, in assay [2], the efficacy was -94.4%.

`COc1cccc2c1CCCC2CCCN1CCN(C2CCCCC2)CC1` (configuration not stated) [PB-28] registered an AC50 cell viability in assay [1] of 16.6 µM. Moreover, the efficacy in assay [2] is -91.3%.

On to `COc1ccc(-c2c(-c3ccc(O)cc3O)n[nH]c2C)cc1` [PDHK RIKEN], for which the AC50 cell viability in assay [1] is 20.9 µM. Also, the efficacy in assay [2] was -47.1%.

For `Cc1cc(C[S+](=O)([O-])c2ccccc2)cc(OCc2ccc(CN3CCC[C@@H]3CO)cc2)c1` [PF-543], the AC50 cell viability in assay [1] turned out to be 16.6 µM. Moreover, the efficacy in assay [2] is -92.7%.

`O=C(Nc1cccnc1)N1CCC(Cc2cccc(Oc3ccc(C(F)(F)F)cn3)c2)CC1` [PF-3845] yielded an AC50 cell viability in assay [1] of 13.2 µM. Also, the efficacy in assay [2] is -82.1%.

Compound `CCCOc1ccc(CCc2nc3cc(-c4c(C)noc4C)ccc3n2CCN2CCOCC2)cc1` [PF-CBP1] registered an AC50 cell viability in assay [1] of 14.8 µM. The efficacy in assay [2] is -94.5%.

In assay [1], `O=C(/C=C/c1ccc2ccc(C(F)(F)F)cc2n1)c1ccncc1` [PFK-158] registered an AC50 cell viability of 3.72 µM. Moreover, the efficacy in assay [2] is -89%.

In the case of `CN1CCN(c2cc(C(=O)Nc3ccc4c(c3)-c3c(c(C(N)=O)nn3-c3ccc(F)cc3)CC4)c(Cl)cn2)CC1` [PHA-408], the AC50 cell viability in assay [1] is 20.9 µM. Besides, the efficacy in assay [2] is -98.2%.

For `Oc1cccc(-c2nc(N3CCOCC3)c3oc4ncccc4c3n2)c1` [PI-103], the AC50 cell viability in assay [1] is 1.32 µM. In addition, the efficacy in assay [2] is -57.3%.

Compound `Fc1ccc2[nH]ccc2c1-c1nc(N2CCOCC2)c2sc(CN3CCN(CC4CC4)CC3)cc2n1` [PI-3065] displayed an AC50 cell viability in assay [1] of 18.6 µM. Also, the efficacy in assay [2] was -95.1%.

In assay [1], `Cc1ccc([N+](=O)[O-])cc1[S+](=O)([O-])N(C)/N=C/c1cnc2ccc(Br)cn12` [PIK-75] had an AC50 cell viability of 0.0525 µM. Also, the efficacy in assay [2] is -60.8%.

The compound `COC1=CC=C2/C3=N/CCN3\C(=N/C2=C1OC)NC(=O)C4=CC=CN=C4` [PIK-90] showed an AC50 cell viability in assay [1] of 0.263 µM. Also, the efficacy in assay [2] was -37.1%.

For `CC(=O)Nc1nc(C)c(-c2ccc(Cl)c([S+](=O)([O-])NCCO)c2)s1` [PIK-93], the AC50 cell viability in assay [1] is 8.33 µM. In addition, the efficacy in assay [2] is -85.9%.

With `C[C@@H](Nc1ncnc2[nH]c(-c3ccc(O)cc3)cc12)c1ccccc1` [PKI-166], the AC50 cell viability in assay [1] turned out to be 14.8 µM. Besides, the efficacy in assay [2] is -84.7%.

Take `CCn1nnc2c(N3CCOCC3)nc(-c3ccc(NC(=O)Nc4ccc(C(=O)N5CCN(C)CC5)cc4)cc3)nc21` [PKI-402]: in assay [1], the AC50 cell viability was found to be 0.118 µM. Also, the efficacy in assay [2] was -64.4%.

Take `FC(F)(F)c1ccc(C/N=c2\ccc(Cc3c[nH]c4ncccc34)c[nH]2)cc1` [PLX-647]: in assay [1], the AC50 cell viability was determined as 13.2 µM. Also, in assay [2], the efficacy is -76.1%.

In assay [1], `CCC[S+](=O)([O-])Nc1ccc(F)c(C(=O)c2c[nH]c3ncc(Cl)cc23)c1F` [PLX-4720] showed an AC50 cell viability of 16.6 µM. Also, the efficacy in assay [2] was -38.4%.

Compound `CCN(C)[S+](=O)([O-])Nc1ccc(F)c(C(=O)c2c[nH]c3ncc(-c4cnc(C5CC5)nc4)cc23)c1F` [PLX-7904] showed an AC50 cell viability in assay [1] of 16.6 µM. Moreover, the efficacy in assay [2] was -69.9%.
